Where “and” joins values, the source holds several entries; their conditions need not be identical. Identical values can stand only once. Like-named read-outs stand apart in the source and are kept apart here. Where a SMILES comes first, the peptide text is derived from it. [ ]: non-standard residue; d: D form. The star is where a group is joined. PEG4 = NCCOCCOCCOCCOCCC(=O)O; Piperidide = C1CCN(*)CC1
Tests used:
H460 cell line = experiment: cells; type: cell-based
Method: (§1) MTT assay was conducted as previously described.^[ [44] ^] Tumor cell lines (NCI‐H460, NCI‐H838, HT‐1080, MCF‐7, PC‐3, U‐251‐MG, and U‐87 MG) were seeded in 96‐well plates at a density of 8000 cells per well in a volume of 100 µL and cultured for 24 h. Normal cell lines (HaCaT, HMEC‐1, MRC‐5, and HEK‐293) were seeded in 96‐well plates at a density of 10 000 cells per well in a volume of 100 µL and cultured for 48 h. After that, only tumor cell lines were starved with 100 µL of SFM for a further 4–6 h. Subsequently, cells were treated with 100 µL of compound solutions with different concentrations for 24 h. Cells treated with SFM and 0.5% DMSO in SFM served as blank control and growth control, respectively. Ten µL of MTT solution (5 mg mL^−1) was added to each well, followed by an additional incubation period of 2 h for tumor cells and 4 h for normal cells. Finally, the solvent in each well was swapped with 100 µL of DMSO to dissolve the formazan crystals. The absorbance was measured by the plate reader at 570 nm.
(§2) The cell viability was calculated (1) Cellviability%=ODSamplegroup−ODBlank/ODGrowthgroup−ODBlank×100%

HEK-293 normal cell line = experiment: cells; type: cell-based
Method: as §1, §2

erythrocytes = type: cell-based; settings: red cells of horse, 2 h
Method: Defibrinated horse blood (1 mL) was washed 3 times with 0.9% NaCl solution to remove plasma and then resuspended in 20 mL of 0.9% NaCl solution to obtain a red blood cell (RBC) suspension. Aliquots of the RBC suspension (100 µL) were incubated with 100 µL of compound solutions at concentrations ranging from 100 to 1.5625 µM (twofold serial dilution) for 2 h at 37 °C. RBCs treated with 0.9% NaCl solution and 1% Triton X‐100 solution served as blank and positive controls, respectively. Subsequently, the samples were centrifuged at 900 × g for 10 min, and the absorbance of the supernatant was measured at 570 nm.
The hemolysis ratio was calculated as (2) Hemolysis%=ODSamplegroup−ODBlank/ODPositivegroup−ODBlank×100%

[1] = 50% human serum (from human male AB plasma, US origin; centrifuged to remove the lipid content); settings: 37 °C, up to 24 h

| Compound | HC10 (concentration causing 10% of erythrocytes lysis) (erythrocytes) [µM] | IC50 (H460 cell line; 24 h) [µM] | IC50 (HEK-293 normal cell line; 24 h) [µM] | cleaved bond [1] | other results |
| --- | --- | --- | --- | --- | --- |
| O=c1[nH]cc(F)c(=O)[nH]1 [5-Fluorouracil, 5-fluorouracil, reference compound] |  |  |  |  | IC50 (H460 cell line; Homo sapiens, NCI-H460, read-out: IC50 Value of chemotherapeutics, H460): 432 ± 61.2 µM; IC50 (HEK-293 normal cell line; Homo sapiens, HEK293, read-out: IC50 Value of chemotherapeutics, HEK-293): 430 ± 40.2 µM |
| CC[C@H](C)[C@H](NC(=O)[C@H](CCCCN)NC(=O)[C@@H]1CCCN1C(=O)[C@H](CC(C)C)NC(=O)[C@@H](NC(=O)[C@H](CO)NC(=O)[C@H](CCC(=O)N1CCCCC1)NC(=O)[C@H](CC(C)C)NC(=O)[C@H](CC(=O)O)NC(=O)[C@H](CC(=O)O)NC(=O)[C@H](Cc1ccccc1)NC(=O)[C@@H](NC(=O)[C@H](CCCCN)NC(=O)[C@@H]1CCCN1C(=O)[C@H](Cc1ccccc1)NC(=O)[C@H](Cc1ccccc1)NC(=O)[C@H](CCC(=O)O)NC(=O)[C@H](C)N)[C@@H](C)CC)[C@@H](C)CC)C(=O)N[C@@H](CC(C)C)C(N)=O [239-1] (H-AEFFPKIFDDLE(Piperidide)SILPKIL-NH2) | 97.64 | 88.2 | > 100 |  |  |
| CC[C@H](C)[C@H](NC(=O)[C@H](CCCCN)NC(=O)[C@@H]1CCCN1C(=O)[C@H](CC(C)C)NC(=O)[C@@H](NC(=O)[C@H](CO)NC(=O)[C@H](CCC(=O)N1CCCCC1)NC(=O)[C@H](CC(C)C)NC(=O)[C@H](CC(=O)O)NC(=O)[C@H](CC(=O)O)NC(=O)[C@H](Cc1ccccc1)NC(=O)[C@@H](NC(=O)[C@H](CCCCN)NC(=O)[C@@H]1CCCN1C(=O)[C@H](Cc1ccccc1)NC(=O)[C@H](Cc1ccccc1)NC(=O)[C@@H](NC(=O)[C@H](C)N)[C@@H](C)O)[C@@H](C)CC)[C@@H](C)CC)C(=O)N[C@@H](CC(C)C)C(N)=O [239-2] (H-ATFFPKIFDDLE(Piperidide)SILPKIL-NH2) | 57.04 | 36.8 ± 3.25 | 44.8 ± 4.06 |  |  |
| CC[C@H](C)[C@H](NC(=O)[C@H](CCCCN)NC(=O)[C@@H]1CCCN1C(=O)[C@H](CC(C)C)NC(=O)[C@@H](NC(=O)[C@H](CO)NC(=O)[C@H](CCC(=O)N1CCCCC1)NC(=O)[C@H](CC(C)C)NC(=O)[C@H](CC(=O)O)NC(=O)[C@H](CC(=O)O)NC(=O)[C@H](Cc1ccccc1)NC(=O)[C@@H](NC(=O)[C@H](CCCCN)NC(=O)[C@@H]1CCCN1C(=O)[C@H](Cc1ccccc1)NC(=O)[C@H](Cc1ccccc1)NC(=O)[C@H](CCCNC(=N)N)NC(=O)[C@H](C)N)[C@@H](C)CC)[C@@H](C)CC)C(=O)N[C@@H](CC(C)C)C(N)=O [239-3] (H-ARFFPKIFDDLE(Piperidide)SILPKIL-NH2) | 24.72 | 14.7 ± 1.22 | 15 ± 1.38 |  |  |
| CC[C@H](C)[C@H](NC(=O)[C@H](CCCCN)NC(=O)[C@@H]1CCCN1C(=O)[C@H](CC(C)C)NC(=O)[C@@H](NC(=O)[C@H](CO)NC(=O)[C@H](CCC(=O)N1CCCCC1)NC(=O)[C@H](CC(C)C)NC(=O)[C@H](CC(=O)O)NC(=O)[C@H](CC(=O)O)NC(=O)[C@H](Cc1ccccc1)NC(=O)[C@@H](NC(=O)[C@H](CCCCN)NC(=O)[C@@H]1CCCN1C(=O)[C@H](Cc1ccccc1)NC(=O)[C@H](Cc1ccccc1)NC(=O)[C@H](CCCCN)NC(=O)[C@H](C)N)[C@@H](C)CC)[C@@H](C)CC)C(=O)N[C@@H](CC(C)C)C(N)=O [239-4] (H-AKFFPKIFDDLE(Piperidide)SILPKIL-NH2) | 25.61 | 22.2 ± 1.06 | 31.5 ± 4.28 |  |  |
| N.N.[Cl][Pt][Cl] [Cisplatin, cisplatin, reference compound] |  |  |  |  | IC50 (H460 cell line; Table S11, MTT, read-out: IC50 Value of chemotherapeutics, H460): 203 ± 26.9 µM; IC50 (HEK-293 normal cell line; Table S11, MTT, read-out: IC50 Value of chemotherapeutics, HEK-293): 162 ± 18.8 µM |
| CC(=O)O[C@H]1C(=O)[C@@]2(C)[C@H]([C@H](OC(=O)c3ccccc3)[C@]3(O)C[C@H](OC(=O)[C@H](O)[C@@H](NC(=O)c4ccccc4)c4ccccc4)C(C)=C1C3(C)C)[C@]1(OC(C)=O)CO[C@@H]1C[C@@H]2O [Paclitaxel, paclitaxel, reference compound] |  |  |  |  | IC50 (H460 cell line; Homo sapiens, NCI-H460, Table S11, MTT, read-out: IC50 Value of chemotherapeutics, H460): 220 ± 65 µM; IC50 (HEK-293 normal cell line; Homo sapiens, HEK293, Table S11, MTT, read-out: IC50 Value of chemotherapeutics, HEK-293): < 7 µM |
| CC[C@H](C)[C@H](NC(=O)[C@H](CCCCN)NC(=O)[C@@H]1CCCN1C(=O)[C@H](CC(C)C)NC(=O)[C@@H](NC(=O)[C@H](CO)NC(=O)[C@H](CCC(=O)N1CCCCC1)NC(=O)[C@H](CC(C)C)NC(=O)[C@H](CC(=O)O)NC(=O)[C@H](CC(=O)O)NC(=O)[C@H](Cc1ccccc1)NC(=O)[C@@H](NC(=O)[C@H](CCCCN)NC(=O)[C@@H]1CCCN1C(=O)[C@H](Cc1ccccc1)NC(=O)[C@@H](N)Cc1ccccc1)[C@@H](C)CC)[C@@H](C)CC)C(=O)N[C@@H](CC(C)C)C(=O)NCC(=O)N1CCC[C@H]1C(=O)N[C@@H](CC(C)C)C(=O)NCC(=O)N[C@@H](CC(C)C)C(=O)N[C@@H](C)C(=O)NCC(=O)NCCOCCOCCOCCOCCC(N)=O [compound 204] (H-FFPKIFDDLE(Piperidide)SILPKILGPLGLAG[PEG4]-NH2) | 46.10 | 20 ± 1.05 | 34.1 ± 3.41 |  |  |
| CC[C@H](C)[C@H](NC(=O)[C@H](CCCCN)NC(=O)[C@@H]1CCCN1C(=O)[C@H](CC(C)C)NC(=O)[C@@H](NC(=O)[C@H](CO)NC(=O)[C@H](CCC(=O)N1CCCCC1)NC(=O)[C@H](CC(C)C)NC(=O)[C@H](CC(=O)O)NC(=O)[C@H](CC(=O)O)NC(=O)[C@H](Cc1ccccc1)NC(=O)[C@@H](NC(=O)[C@H](CCCCN)NC(=O)[C@@H]1CCCN1C(=O)[C@H](Cc1ccccc1)NC(=O)[C@@H](N)Cc1ccccc1)[C@@H](C)CC)[C@@H](C)CC)C(=O)N[C@@H](CC(C)C)C(=O)NCC(=O)N1CCC[C@H]1C(=O)N[C@@H](CC(C)C)C(=O)NCC(=O)N[C@@H](CC(C)C)C(=O)N[C@@H](C)C(=O)NCC(=O)NCCOCCOCCOCCOCCC(=O)NCCOCCOCCOCCOCCC(N)=O [compound 207] (H-FFPKIFDDLE(Piperidide)SILPKILGPLGLAG[PEG4][PEG4]-NH2) | 69.26 | 28 ± 1.59 | 44.2 ± 3.21 |  |  |
| CC[C@H](C)[C@H](NC(=O)[C@H](CCCCN)NC(=O)[C@@H]1CCCN1C(=O)[C@H](CC(C)C)NC(=O)[C@@H](NC(=O)[C@H](CO)NC(=O)[C@H](CCC(=O)N1CCCCC1)NC(=O)[C@H](CC(C)C)NC(=O)[C@H](CC(=O)O)NC(=O)[C@H](CC(=O)O)NC(=O)[C@H](Cc1ccccc1)NC(=O)[C@@H](NC(=O)[C@H](CCCCN)NC(=O)[C@@H]1CCCN1C(=O)[C@H](Cc1ccccc1)NC(=O)[C@@H](N)Cc1ccccc1)[C@@H](C)CC)[C@@H](C)CC)C(=O)N[C@@H](CC(C)C)C(=O)NCC(=O)NCC(=O)NCC(=O)NCC(=O)NCC(=O)NCC(=O)NCC(=O)NCCOCCOCCOCCOCCC(=O)NCCOCCOCCOCCOCCC(=O)NCCOCCOCCOCCOCCC(=O)NCCOCCOCCOCCOCCC(N)=O [compound 288] (H-FFPKIFDDLE(Piperidide)SILPKILGGGGGGG[PEG4][PEG4][PEG4][PEG4]-NH2) | >100 | > 100 | > 100 |  |  |
| AEFFPKIFDDLE(PIP)SILPKIL-NH2 |  |  |  | Ala-E |  |
| AK(Ac)FFPKIFDDLE(PIP)SILPKIL-NH2 |  |  |  |  | fragment found [1]: 239-4-Ac-1 FPKIFDDLE(PIP)SILPKIL-NH2 and 239-4-Ac-2 FFPKIFDDLE(PIP)SILPKIL-NH2 |
| AKFFPKIFDDLE(PIP)SILPKIL-NH2 |  |  |  | Ala-K |  |
| AKFFPKIFDDLE(PIP)SILPKILGPLGLAG-(PEG4)6-NH2 |  |  |  |  | not cleaved [1]: nearly 100% remaining ratio after 24 h |
| ARFFPKIFDDLE(PIP)SILPKIL-NH2 |  |  |  | R-F, major |  |
| ATFFPKIFDDLE(PIP)SILPKIL-NH2 |  |  |  | F-F, major |  |
| FFPKIFDDLE(PIP)SILPKIL-NH2 |  |  |  | Phe1-F |  |
| FFPKIFDDLE(PIP)SILPKILGPLGLAG-(PEG4)4-NH2 |  |  |  | Phe1-F |  |

Source: publication PMC12677599 (Advanced Science, 2025)
